Data taken from ChEMBL document CHEMBL1201862, “PubChem BioAssay data set” (2004).
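Assay format: 96-well plates, 48-hour exposure. Here, GI50 denotes the concentration required for 50% inhibition of growth.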 Activity calls are given as the source filed them. No stated cut-off is given here; in the data, active = GI50 up to about 1.1 µM and inactive = higher.

How the values were obtained:
Test in all cases: inhibition of tumour cell growth, NCI panel, 48 h
[1] = tested on: HCT-15
[2] = tested on: SF-268
[3] = tested on: LOX IMVI
[4] = tested on: HL-60
[5] = tested on: SNB-75
[6] = tested on: NCI-H460
[7] = tested on: UO-31
[8] = tested on: Malme-3M
[9] = tested on: COLO 205
[10] = tested on: OVCAR-8
[11] = tested on: NCI-H522
[12] = tested on: SR
[13] = tested on: K562
[14] = tested on: MDA-N
[15] = tested on: U-251
[16] = tested on: A498
[17] = tested on: 786-0
[18] = tested on: HOP-62
[19] = tested on: SK-OV-3
[20] = tested on: MDA-MB-435
[21] = tested on: MCF7
[22] = tested on: PC-3
[23] = tested on: SW-620
[24] = tested on: EKVX
[25] = tested on: MOLT-4
[26] = tested on: NCI-H226
[27] = tested on: SK-MEL-5
[28] = tested on: MDA-MB-231
[29] = tested on: NCI/ADR-RES
[30] = tested on: SF-539
[31] = tested on: ACHN
[32] = tested on: HCC 2998
[33] = tested on: OVCAR-4
[34] = tested on: HT-29
[35] = tested on: T47D
[36] = tested on: SN12C
[37] = tested on: Hs-578T
[38] = tested on: CCRF-CEM
[39] = tested on: IGROV-1
[40] = tested on: SF-295
[41] = tested on: UACC-62
[42] = tested on: M14
[43] = tested on: CAKI-1
[44] = tested on: A549
[45] = tested on: NCI-H23
[46] = tested on: SNB-19
[47] = tested on: UACC-257
[48] = tested on: HOP-92
[49] = tested on: KM12
[50] = tested on: SK-MEL-28
[51] = tested on: RPMI-8226
[52] = tested on: DU-145
[53] = tested on: SK-MEL-2
[54] = tested on: OVCAR-3
[55] = tested on: HCT-116
[56] = tested on: TK-10
[57] = tested on: OVCAR-5
[58] = tested on: RXF 393

## CC1(C)CC(=O)/C(=C/C2CCNC2=S)C(=O)N1 (centres undefined)
[1]
  GI50: > 100 µM
[2]
  GI50: > 100 µM (inactive)
[3]
  GI50: > 100 µM (inactive)
[4]
  GI50: > 100 µM (inactive)
[5]
  GI50: > 100 µM (inactive)
[6]
  GI50: > 100 µM (inactive)
[7]
  GI50: > 100 µM (inactive)
[8]
  GI50: > 100 µM (inactive)
[9]
  GI50: > 100 µM (inactive)
[10]
  GI50: > 100 µM (inactive)
[11]
  GI50: > 100 µM (inactive)
[12]
  GI50: > 100 µM (inactive)
[13]
  GI50: > 100 µM (inactive)
[14]
  GI50: > 100 µM (inactive)
[15]
  GI50: > 100 µM (inactive)
[16]
  GI50: > 100 µM (inactive)
[17]
  GI50: > 100 µM (inactive)
[18]
  GI50: > 100 µM (inactive)
[19]
  GI50: > 100 µM (inactive)
[20]
  GI50: > 100 µM (inactive)
[21]
  GI50: > 100 µM (inactive)
[22]
  GI50: > 100 µM (inactive)
[23]
  GI50: > 100 µM (inactive)
[24]
  GI50: > 100 µM (inactive)
[25]
  GI50: > 100 µM (inactive)
[26]
  GI50: > 100 µM (inactive)
[27]
  GI50: > 100 µM (inactive)
[28]
  GI50: > 100 µM (inactive)
[29]
  GI50: > 100 µM (inactive)
[30]
  GI50: > 100 µM (inactive)
[31]
  GI50: > 100 µM (inactive)
[32]
  GI50: > 100 µM (inactive)
[33]
  GI50: > 100 µM (inactive)
[34]
  GI50: > 100 µM (inactive)
[35]
  GI50: > 100 µM (inactive)
[36]
  GI50: 82.4 µM (inactive)
[37]
  GI50: > 100 µM (inactive)
[38]
  GI50: > 100 µM (inactive)
[39]
  GI50: > 100 µM (inactive)
[40]
  GI50: > 100 µM (inactive)
[41]
  GI50: > 100 µM (inactive)
[42]
  GI50: > 100 µM (inactive)
[43]
  GI50: > 100 µM (inactive)
[44]
  GI50: > 100 µM (inactive)
[45]
  GI50: > 100 µM (inactive)
[46]
  GI50: > 100 µM (inactive)
[47]
  GI50: > 100 µM (inactive)
[48]
  GI50: > 100 µM (inactive)
[49]
  GI50: > 100 µM (inactive)
[50]
  GI50: > 100 µM (inactive)
[51]
  GI50: > 100 µM (inactive)
[52]
  GI50: > 100 µM (inactive)
[53]
  GI50: > 100 µM (inactive)
[54]
  GI50: > 100 µM (inactive)
[55]
  GI50: > 100 µM (inactive)
[56]
  GI50: > 100 µM (inactive)
[57]
  GI50: > 100 µM (inactive)

## N#Cc1nc(/C=C/c2cccnc2)oc1N
[1]
  GI50: > 100 µM
[2]
  GI50: > 100 µM (inactive)
[3]
  GI50: > 100 µM (inactive)
[4]
  GI50: > 100 µM (inactive)
[5]
  GI50: > 100 µM (inactive)
[6]
  GI50: > 100 µM (inactive)
[7]
  GI50: > 100 µM (inactive)
[8]
  GI50: > 100 µM (inactive)
[9]
  GI50: > 100 µM (inactive)
[11]
  GI50: > 100 µM (inactive)
[12]
  GI50: > 100 µM (inactive)
[13]
  GI50: > 100 µM (inactive)
[14]
  GI50: > 100 µM (inactive)
[58]
  GI50: > 100 µM (inactive)
[15]
  GI50: > 100 µM (inactive)
[16]
  GI50: > 100 µM (inactive)
[17]
  GI50: > 100 µM (inactive)
[18]
  GI50: > 100 µM (inactive)
[19]
  GI50: > 100 µM (inactive)
[20]
  GI50: > 100 µM (inactive)
[21]
  GI50: > 100 µM (inactive)
[22]
  GI50: > 100 µM (inactive)
[23]
  GI50: > 100 µM (inactive)
[24]
  GI50: > 100 µM (inactive)
[25]
  GI50: > 100 µM (inactive)
[26]
  GI50: > 100 µM (inactive)
[27]
  GI50: > 100 µM (inactive)
[28]
  GI50: > 100 µM (inactive)
[29]
  GI50: > 100 µM (inactive)
[30]
  GI50: > 100 µM (inactive)
[31]
  GI50: > 100 µM (inactive)
[32]
  GI50: > 100 µM (inactive)
[33]
  GI50: > 100 µM (inactive)
[34]
  GI50: > 100 µM (inactive)
[35]
  GI50: > 100 µM (inactive)
[36]
  GI50: > 100 µM (inactive)
[37]
  GI50: > 100 µM (inactive)
[38]
  GI50: > 100 µM (inactive)
[39]
  GI50: > 100 µM (inactive)
[40]
  GI50: > 100 µM (inactive)
[41]
  GI50: > 100 µM (inactive)
[42]
  GI50: > 100 µM (inactive)
[43]
  GI50: > 100 µM (inactive)
[44]
  GI50: 28.4 µM (inactive)
[45]
  GI50: > 100 µM (inactive)
[46]
  GI50: > 100 µM (inactive)
[47]
  GI50: > 100 µM (inactive)
[48]
  GI50: > 100 µM (inactive)
[49]
  GI50: > 100 µM (inactive)
[50]
  GI50: > 100 µM (inactive)
[51]
  GI50: > 100 µM (inactive)
[52]
  GI50: > 100 µM (inactive)
[53]
  GI50: > 100 µM (inactive)
[54]
  GI50: > 100 µM (inactive)
[55]
  GI50: > 100 µM (inactive)
[56]
  GI50: > 100 µM (inactive)
[57]
  GI50: > 100 µM (inactive)
